Experimental findings from US11446287B2, “Compounds and methods for EP300 or CBP modulation and indications therefor” (Opna Immuno-Oncology SA, priority 2019, dated 2022) are described below.

This assay concerns the target T1, Recombinant human BRD4 containing dual bromodomains (BRD4-BD12 (1-477)) (Homo sapiens, UniProt O60885).
T1 construct: Recombinant human BRD4 containing dual bromodomains (BRD4-BD12 (1-477)); made in house; host or cells: E. coli BL21-CodonPlus (DE3), modified pET vector
Kind of assay: BRD4 Alphascreen binding assay. The method, boiled down: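 AlphaScreen proximity between Ni-chelate-bound BRD4-BD12 (1-477) and streptavidin-captured H4 K5/K8/K12/K16-acetyl peptide measured after 1 h room-temperature compound incubation and 30 min with 7.5 μg/ml beads. Buffer: 50 mM HEPES pH 7.5, 50 mM NaCl, 0.01% BSA, 0.01% Triton X-100; data plate-normalized and four-parameter fit for IC50.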

On to `Cc1noc(C)c1-c1cnc2c(c1)c(-c1cnn(C(C)(C)C(=O)O)c1)cn2C(c1ccccn1)C1CCCC1` (stereo not drawn) [P-0035, 2-(4-(1-(cyclopentyl(pyridin-2-yl)methyl)-5-(3,5-dimethylisoxazol-4-yl)-1H-pyrrolo[2,3-b]pyridin-3-yl)-1H-pyrazol-1-yl)-2-methylpropanoic acid], for which the IC50 fell in the range of 1 to 8 µM.
The figure for `Cc1noc(C)c1-c1cnc2c(c1)c(-c1cnn(CC(=O)O)c1)cn2C(c1ccccn1)C1CCCC1` (stereo not drawn) [P-0036, 2-(4-(1-(cyclopentyl(pyridin-2-yl)methyl)-5-(3,5-dimethylisoxazol-4-yl)-1H-pyrrolo[2,3-b]pyridin-3-yl)-1H-pyrazol-1-yl)acetic acid] is 1 to 8 µM; for `Cc1noc(C)c1-c1cnc2c(c1)c(-c1cnn(CC(C)(C)O)c1)cn2C(c1ccccn1)C1CCCC1` (stereo not drawn) [P-0037, 1-(4-(1-(cyclopentyl(pyridin-2-yl)methyl)-5-(3,5-dimethylisoxazol-4-yl)-1H-pyrrolo[2,3-b]pyridin-3-yl)-1H-pyrazol-1-yl)-2-methylpropan-2-ol] it is 1 to 8 µM; for `Cc1noc(C)c1-c1cnc2c(c1)c(-c1ccc(C(=O)O)c(Cl)c1)cn2C(c1ccccn1)C1CCCC1` (stereo not drawn) [P-0038, 2-chloro-4-(1-(cyclopentyl(pyridin-2-yl)methyl)-5-(3,5-dimethylisoxazol-4-yl)-1H-pyrrolo[2,3-b]pyridin-3-yl)benzoic acid] it is 1 to 8 µM.
In the case of `COC(=O)c1cc(-c2cn(C(c3ccccn3)C3CCCC3)c3ncc(-c4c(C)noc4C)cc23)ccn1` (stereo not drawn) [P-0040, methyl 4-(1-(cyclopentyl(pyridin-2-yl)methyl)-5-(3,5-dimethylisoxazol-4-yl)-1H-pyrrolo[2,3-b]pyridin-3-yl)picolinate] it was 1 to 8 µM.
For `Cc1noc(C)c1-c1cnc2c(c1)c(-c1ccnc(C(=O)O)c1)cn2C(C1CC1)C1CC1` [P-0041, 4-(1-(dicyclopropylmethyl)-5-(3,5-dimethylisoxazol-4-yl)-1H-pyrrolo[2,3-b]pyridin-3-yl)picolinic acid], the IC50 was 0.0001 to 1 µM.
For `Cc1noc(C)c1-c1cnc2c(c1)c(-c1ccnc(C(=O)O)c1)cn2Cc1ccccc1` [P-0042, 4-(1-benzyl-5-(3,5-dimethylisoxazol-4-yl)-1H-pyrrolo[2,3-b]pyridin-3-yl)picolinic acid], the IC50 lay in the range of 0.0001 to 1 µM.
In the case of `Cc1noc(C)c1-c1cnc2c(c1)c(-c1ccnc(C(=O)O)c1)cn2C(c1ccccn1)C1CCC1` (stereo not drawn) [P-0043, 4-(1-(cyclobutyl(pyridin-2-yl)methyl)-5-(3,5-dimethylisoxazol-4-yl)-1H-pyrrolo[2,3-b]pyridin-3-yl)picolinic acid] it was 1 to 8 µM; in that of `Cc1noc(C)c1-c1cnc2c(c1)c(-c1ccnc(C(=O)O)c1)cn2Cc1ccccn1` [P-0044, 4-(5-(3,5-dimethylisoxazol-4-yl)-1-(pyridin-2-ylmethyl)-1H-pyrrolo[2,3-b]pyridin-3-yl)picolinic acid], 0.0001 to 1 µM; in that of `Cc1noc(C)c1-c1cnc2c(c1)c(-c1ccnc(C(=O)O)c1)cn2CC1CC1` [P-0045, 4-(1-(cyclopropylmethyl)-5-(3,5-dimethylisoxazol-4-yl)-1H-pyrrolo[2,3-b]pyridin-3-yl)picolinic acid], 0.0001 to 1 µM.
In the case of `COC(=O)c1cc(-c2cn(C(c3ccccn3)C3CCC3)c3ncc(-c4c(C)noc4C)cc23)ccn1` (stereo not drawn) [P-0046, methyl 4-(1-(cyclobutyl(pyridin-2-yl)methyl)-5-(3,5-dimethylisoxazol-4-yl)-1H-pyrrolo[2,3-b]pyridin-3-yl)picolinate] it was 8 to 1000 µM; in that of `COc1cc(C(=O)O)ccc1-c1cn([C@@H](C)c2ccccn2)c2ncc(-c3c(C)noc3C)cc12` [P-0047, (S)-4-(5-(3,5-dimethylisoxazol-4-yl)-1-(1-(pyridin-2-yl)ethyl)-1H-pyrrolo[2,3-b]pyridin-3-yl)-3-methoxybenzoic acid], 1 to 8 µM.
In the case of `Cc1noc(C)c1-c1cnc2c(c1)c(-c1cccc(C(=O)O)c1)cn2Cc1ccccc1` [P-0048, 3-(1-benzyl-5-(3,5-dimethylisoxazol-4-yl)-1H-pyrrolo[2,3-b]pyridin-3-yl)benzoic acid] it was 1 to 8 µM.
Take `Cc1noc(C)c1-c1cnc2c(c1)c(-c1cccc(C(=O)O)c1)cn2Cc1ccccn1` [P-0049, 3-(5-(3,5-dimethylisoxazol-4-yl)-1-(pyridin-2-ylmethyl)-1H-pyrrolo[2,3-b]pyridin-3-yl)benzoic acid]: the IC50 lay in the range of 8 to 1000 µM.
The figure for `Cc1noc(C)c1-c1cnc2c(c1)c(-c1cccc(C(=O)O)c1)cn2CC1CC1` [P-0050, 3-(1-(cyclopropylmethyl)-5-(3,5-dimethylisoxazol-4-yl)-1H-pyrrolo[2,3-b]pyridin-3-yl)benzoic acid] is 8 to 1000 µM; for `Cc1noc(C)c1-c1cnc2c(c1)c(C#CC(C)(C)C(=O)O)cn2Cc1ccccc1` [P-0051, 4-(1-benzyl-5-(3,5-dimethylisoxazol-4-yl)-1H-pyrrolo[2,3-b]pyridin-3-yl)-2,2-dimethylbut-3-ynoic acid] it is 8 to 1000 µM.
The figure for `COC(=O)c1cc(-n2cc(Cc3ccccc3)c3ncc(-c4c(C)noc4C)cc32)ccn1` [P-0052, methyl 4-(3-benzyl-6-(3,5-dimethylisoxazol-4-yl)-1H-pyrrolo[3,2-b]pyridin-1-yl)picolinate] is 1 to 8 µM; for `Cc1noc(C)c1-c1cnc2c(Cc3ccccc3)cn(-c3ccnc(C(=O)O)c3)c2c1` [P-0053, 4-(3-benzyl-6-(3,5-dimethylisoxazol-4-yl)-1H-pyrrolo[3,2-b]pyridin-1-yl)picolinic acid] it is 1 to 8 µM; for `Cc1noc(C)c1-c1cnc2c(C(=O)c3ccccc3)cn(-c3ccnc(C(=O)O)c3)c2c1` [P-0054, 4-(3-benzoyl-6-(3,5-dimethylisoxazol-4-yl)-1H-pyrrolo[3,2-b]pyridin-1-yl)picolinic acid] it is 0.0001 to 1 µM.
The figure for `Cc1noc(C)c1-c1cnc2c(c1)c(-c1ccc(C(=O)O)cc1OC(F)(F)F)cn2-c1ccc(C2CC2)nc1` [P-0388, 4-(1-(6-cyclopropylpyridin-3-yl)-5-(3,5-dimethylisoxazol-4-yl)-1H-pyrrolo[2,3-b]pyridin-3-yl)-3-(trifluoromethoxy)benzoic acid] is 1 to 8 µM; for `Cc1noc(C)c1-c1cnc2c(c1)c(-c1ccc(C(=O)O)cc1OC(F)(F)F)cn2C1CCC(C#N)C1` (stereo not drawn) [P-0389, 4-(1-(3-cyanocyclopentyl)-5-(3,5-dimethylisoxazol-4-yl)-1H-pyrrolo[2,3-b]pyridin-3-yl)-3-(trifluoromethoxy)benzoic acid] it is 1 to 8 µM; for `Cc1noc(C)c1-c1cnc2c(c1)c(-c1c(Cl)cc(C(=O)O)cc1OCC(F)F)cn2-c1cnc(C2CC2)nc1` [P-0390, 3-chloro-4-(1-(2-cyclopropylpyrimidin-5-yl)-5-(3,5-dimethylisoxazol-4-yl)-1H-pyrrolo[2,3-b]pyridin-3-yl)-5-(2,2-difluoroethoxy)benzoic acid] it is 1 to 8 µM.
In the case of `Cc1noc(C)c1-c1cnc2c(c1)c(-c1c(Cl)cc(C(=O)O)cc1OC1CCC1)cn2-c1cnc(C2CC2)nc1` [P-0391, 3-chloro-5-cyclobutoxy-4-(1-(2-cyclopropylpyrimidin-5-yl)-5-(3,5-dimethylisoxazol-4-yl)-1H-pyrrolo[2,3-b]pyridin-3-yl)benzoic acid], the IC50 was 1 to 8 µM.
The figure for `COc1ncc(-n2cc(-c3ccc(C(=O)O)cc3OC(F)(F)F)c3cc(-c4c(C)noc4C)cnc32)cn1` [P-0392, 4-(5-(3,5-dimethylisoxazol-4-yl)-1-(2-methoxypyrimidin-5-yl)-1H-pyrrolo[2,3-b]pyridin-3-yl)-3-(trifluoromethoxy)benzoic acid] is 1 to 8 µM.
The figure for `Cc1noc(C)c1-c1cnc2c(c1)c(-c1c(Cl)cc(C(=O)O)cc1OC(C)C)cn2-c1cnc(C2CC2)nc1` [P-0393, 3-chloro-4-(1-(2-cyclopropylpyrimidin-5-yl)-5-(3,5-dimethylisoxazol-4-yl)-1H-pyrrolo[2,3-b]pyridin-3-yl)-5-isopropoxybenzoic acid] is 1 to 8 µM.
With `Cc1noc(C)c1-c1cnc2c(c1)c(-c1c(F)cc(C(=O)O)cc1OC1CC1)cn2C(C1CC1)C1CC1` [P-0394, 3-cyclopropoxy-4-(1-(dicyclopropylmethyl)-5-(3,5-dimethylisoxazol-4-yl)-1H-pyrrolo[2,3-b]pyridin-3-yl)-5-fluorobenzoic acid], the IC50 lay in the range of 1 to 8 µM.
The figure for `Cc1noc(C)c1-c1cnc2c(c1)c(-c1c(Cl)cc(C(=O)O)cc1OC(F)(F)F)cn2-c1ncccc1C#N` [P-0395, 3-chloro-4-(1-(3-cyanopyridin-2-yl)-5-(3,5-dimethylisoxazol-4-yl)-1H-pyrrolo[2,3-b]pyridin-3-yl)-5-(trifluoromethoxy)benzoic acid] is 1 to 8 µM; for `Cc1noc(C)c1-c1cnc2c(c1)c(-c1c(Cl)cc(C(=O)O)cc1OC1CCC1)cn2-c1ncccc1C#N` [P-0396, 3-chloro-4-(1-(3-cyanopyridin-2-yl)-5-(3,5-dimethylisoxazol-4-yl)-1H-pyrrolo[2,3-b]pyridin-3-yl)-5-cyclobutoxybenzoic acid] it is 1 to 8 µM; for `Cc1noc(C)c1-c1cnc2c(c1)c(-c1c(F)cc(C(=O)O)cc1OC1CC1)cn2C1CCOCC1` [P-0397, 3-cyclopropoxy-4-(5-(3,5-dimethylisoxazol-4-yl)-1-(tetrahydro-2H-pyran-4-yl)-1H-pyrrolo[2,3-b]pyridin-3-yl)-5-fluorobenzoic acid] it is 8 to 1000 µM.
The figure for `CCOc1nc(C(=O)O)c(Cl)cc1-c1cn(C2CCOCC2)c2ncc(-c3c(C)noc3C)cc12` [P-0398, 3-chloro-5-(5-(3,5-dimethylisoxazol-4-yl)-1-(tetrahydro-2H-pyran-4-yl)-1H-pyrrolo[2,3-b]pyridin-3-yl)-6-ethoxypicolinic acid] is 8 to 1000 µM.

What is called IC50 is the concentration at which inhibition is half-maximal.
